The values that follow come from US20060178374A1, “Aminoheteroaryl compounds as protein kinase inhibitors” (AGOURON PHARMACEUTICALS, INC., priority 2004, published 2006).

Chain of HGFR (c-Met) (P08581 974-1390): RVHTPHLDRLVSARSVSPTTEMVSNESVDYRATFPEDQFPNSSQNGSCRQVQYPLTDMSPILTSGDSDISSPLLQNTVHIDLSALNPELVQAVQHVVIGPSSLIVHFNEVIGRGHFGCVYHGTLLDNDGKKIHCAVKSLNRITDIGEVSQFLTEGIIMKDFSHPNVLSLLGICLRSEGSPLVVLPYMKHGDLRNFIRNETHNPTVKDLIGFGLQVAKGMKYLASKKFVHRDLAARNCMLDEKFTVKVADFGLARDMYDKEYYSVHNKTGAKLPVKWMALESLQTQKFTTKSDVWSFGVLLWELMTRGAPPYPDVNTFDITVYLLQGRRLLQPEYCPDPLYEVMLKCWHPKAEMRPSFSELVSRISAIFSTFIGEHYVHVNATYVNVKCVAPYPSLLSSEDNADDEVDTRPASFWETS

The first experiment has as its target HGFR (c-Met) (Homo sapiens, UniProt P08581). Briefly: HGFR Continuous-Coupled Spectrophotometric Assay. The experiment is classed as biochemical. The settings on record: HGFR enzyme 50 nM, Met-2 peptide substrate, 37° C. The method, then: The general procedure is as follows: compounds and kinase assay reagents are introduced into test wells. The assay is initiated by addition of the kinase enzyme. Enzyme inhibitors reduce the measured activity of the enzyme.
In the continuous-coupled spectrophotometric assay the time-dependent production of ADP by the kinase is determined by analysis of the rate of consumption of NADH by measurement of the decrease in absorbance at 340 nm. As the PK produces ADP it is re-converted to ATP by reaction with phosphoenol pyruvate and pyruvate kinase. Pyruvate is also produced in this reaction. Pyruvate is subsequently converted to lactate by reaction with lactate dehydrogenase, which simultaneously converts NADH to NAD.
HGFR Continuous-Coupled Spectrophotometric Assay
This assay analyzes the tyrosine kinase activity of HGFR on the Met-2 substrate peptide, a peptide derived from the activation loop of the HGFR.
• 1. […] Dissolve up in 200 mM HEPES, pH 7.5 at 10 mM stock. • 3. 1 M PEP (phospho-enol-pyruvate) in 200 mM HEPES, pH 7.5 • 4. 100 mM NADH (B-Nicotinamide Adenine Dinucleotide, Reduced Form) in 200 mM HEPES, pH 7.5 • 5. 4 M MgCl2 (Magnesium Chloride) in ddH2O 6. 1 M DTT (Dithiothreitol) in 200 mM HEPES, pH 7.5 • 7. 15 Units/mL LDH (Lactic Dehydrogenase) • 8. 15 Units/mL PK (Pyruvate Kinase) • 9. 5M NaCl dissolved in ddH2O • 10. Tween-20 (Protein Grade) 10% Solution • 11. 1 M HEPES buffer: (N-[2-Hydroxethyl]piperazine-N-[2-ethanesulfonic acid]) Sodium Salt. Dissolve in ddH2O, adjust pH to 7.5, bring volume to 1 L. Filter at 0.1 μm. • 12. […] 100% DMSO (SIGMA) • 14. […] Beckman DU-650 w/ micro cell holders • 18. Beckman 4-position micro cell cuvette Procedure:
Prep Dilution Buffer (DB) for Enzyme (For 30 mL prep) • 1. DB final concentration is 2 mM DTT, 25 mM NaCl2, 5 mM MgCl2, 0.01% Tween-20, and 50 mM HEPES buffer, pH 7.5. • 2. Make up 50 mM HEPES by adding 1.5 mL 1 M HEPES into 28.1 mL of ddH2O. Add rest of the reagents. Into 50 mL conical vial, add 60 μL of 1M DTT, 150 μL 5M NaCl2, 150 μL 1M MgCl2, and 30 μL of 10% Tween-20 to give total volume of 30 mL. • 3. Vortex for 5-10 seconds. • 4. Aliquot out DB at 1 mL/tube and label tubes as “DB HGFR” • 5. Note: This can be prepared and stored ahead of time. • 6. Freeze un-used aliquots in microcentrifuge tubes at −20° C. freezer.
Prep Compounds • 1. For compound dilution plate, add 4 μL of 10 mM stock into column 1 of plate, and bring volume to 100 μL with 100% DMSO. • 2. Set up the Precision 2000 dilution method. A final concentration of 200 μM compound in 50% DMSO, 100 mM HEPES (1:2 serial dilution).
Prep Coupled Enzymatic Buffer:
1. Final concentration in assay:
• 2. For a 10 mL reaction buffer add 10 μL of 1M PEP, 33 μL of 100 mM NADH, 50 μL of 4M MgCl2, 20 μL of 1M DTT, 6 μL of 500 mM ATP, and […] of 10 mM Met-2 peptide into 100 mM HEPES buffer pH 7.5 and vortex/mix. • 3. Add coupling enzymes, LDH and PK, into reaction mix. Mix by gentle inversion.
1. Spectrophotometer settings:
• 2. Add 85 μL of CE reaction mix into each well of assay plate. • 3. Add 5 μL of diluted compound into a well of the assay plate. • 4. Add 5 μL of 50% DMSO for negative control into last column of assay plate. • 5. Mix with multi-channel pipettor or orbital shaker. • 6. Pre-incubate for 10 minutes at 37° C. • 7. Add 10 μL of 500 nM HGFR to each well of assay plate; the final HGFR concentration is 50 nM in a total final volume of 100 μL. • 8. Measure activity for 10 minutes at λ=340 nm and 37° C.
Ki data were obtained using the HGFR Continuous-Coupled Spectrophotometric Assay, and IC50 data were obtained using the Cellular HGFR Autophosphorylation Assay, both of which are described above.
The compound `CC(Oc1cc(-c2ccc(C(=O)NCCCN)cc2)cnc1N)c1c(Cl)ccc(F)c1Cl` (stereo not drawn) [Example 11, 4-(6-Amino-5-[1-(2,6-dichloro-3-fluorophenyl)ethoxy]pyridin-3-yl}-N-(3-aminopropyl) benzamide] showed a Ki of 45 nM.
Still for that read-out and setting: in the case of `CC(Oc1cc(-c2ccc(C(=O)N3CC[N@]4C[C@H]3C4)cc2)cnc1N)c1c(Cl)ccc(F)c1Cl` (stereo partly drawn) [Example 8, 5-[4-(1,4-Diazabicyclo[3.1.1]hept-4-ylcarbonyl)phenyl]-3-[1-(2,6-dichloro-3-fluorophenyl)ethoxy]pyridin-2-amine] it was 20 nM.
Same read-out and setting: in the case of `CC(Oc1cc(-c2ccc(N3CCN(CCN(C)C)CC3)nc2)cnc1N)c1c(Cl)ccc(F)c1Cl` (stereo not drawn) [Example 69, 5-[1-(2,6-Dichloro-3-fluoro-phenyl)-ethoxy]-6′-[4-(2-dimethylamino-ethyl)-piperazin-1-yl]-[3,3′]bipyridinyl-6-ylamine] it was 39 nM; in that of `CC(Oc1cc(-c2ccc(N3CCN(CCO)CC3)nc2)cnc1N)c1c(Cl)ccc(F)c1Cl` (stereo not drawn) [Example 66, 2-(4-{6′-Amino-5′-[1-(2,6-dichloro-3-fluoro-phenyl)-ethoxy]-[3,3′]bipyridinyl-6-yl}-piperazin-1-yl)-ethanol], 32.7 nM; in that of `C[C@@H](Oc1cc(-c2ccc(CO)cc2)cnc1N)c1c(Cl)ccc(F)c1Cl` [Example 127, (4-{6-amino-5-[(1R)-1-(2,6-dichloro-3-fluorophenyl)ethoxy]pyridin-3-yl}phenyl)methanol], 51 nM.
The compound `CC(Oc1cc(C(N)=O)cnc1N)c1c(Cl)ccc(F)c1Cl` (stereo not drawn) [Example 81, 6-Amino-5-[1-(2,6-dichloro-3-fluoro-phenyl)-ethoxy]-nicotinamide] returned a Ki of 1000 nM.
Still for that read-out and setting: in the case of `Cc1cc2cccc(-c3cnc(N)c(OC(C)c4c(Cl)ccc(F)c4Cl)n3)c2[nH]1` (stereo not drawn) [Example 95, 3-[1-(2,6-Dichloro-3-fluoro-phenyl)-ethoxy]-5-(2-methyl-1H-indol-7-yl)-pyrazin-2-ylamine] it was 4200 nM; in that of `CC(Oc1cc(-c2ccc(NCCN3CCCC3)nc2)cnc1N)c1c(Cl)ccc(F)c1Cl` (stereo not drawn) [Example 75, 5-[1-(2,6-Dichloro-3-fluoro-phenyl)-ethoxy]-N6′-(2-pyrrolidin-1-yl-ethyl)-[3,3′]bipyridinyl-6,6′-diamine], 28 nM.
In turn, `CC(Oc1cc(-c2ccc(C(=O)N3CCC(N4CCCC4)CC3)cc2)cnc1N)c1ccc(Cl)cc1Cl` (stereo not drawn) [Example 52, (4-{6-Amino-5-[1-(2,4-dichloro-phenyl)-ethoxy]-pyridin-3-yl}-phenyl)-(4-pyrrolidin-1-yl-piperidin-1-yl)-methanone] had a Ki of 2140 nM.
In turn, `COC(=O)c1cn(-c2cnc(N)c(OC(C)c3c(Cl)ccc(F)c3Cl)c2)cn1` (stereo not drawn) [Example 86, 1-{6-Amino-5-[1-(2,6-dichloro-3-fluoro-phenyl)-ethoxy]-pyridin-3-yl}-imidazole-4-carboxylic acid methyl ester] displayed a Ki of 1810 nM.
On the same count and under the same terms, in the case of `CC(Oc1cc(-c2ccc3c(ccn3C)c2)cnc1N)c1c(Cl)ccc(F)c1Cl` (stereo not drawn) [Example 148, 3-[1-(2,6-dichloro-3-fluorophenyl)ethoxy]-5-(1-methyl-1H-indol-5-yl)pyridin-2-amine] it was 153 nM; in that of `CC(Oc1cc(Br)cnc1N)c1c(C#N)ccc(N(C)C)c1Cl` (stereo not drawn) [Example 50, 2-{1-[(2-amino-5-bromopyridin-3-yl)oxy]ethyl}-3-chloro-4-(dimethylamino)benzonitrile], 1840 nM.
On the same count and under the same terms, next, `COc1cc(-c2cnc(N)c(OC(C)c3c(Cl)ccc(F)c3Cl)c2)ccc1C(=O)N1C[C@@H](C)N[C@@H](C)C1` (stereo partly drawn) [Example 23, 3-[1-(2,6-dichloro-3-fluorophenyl)ethoxy]-5-(4-{[(3R,5S)-3,5-dimethylpiperazin-1-yl]carbonyl}-3-methoxyphenyl)pyridin-2-amine]: 27.2 nM; `CC(Oc1cc(C2=CCCC2)cnc1N)c1c(Cl)ccc(F)c1Cl` (stereo not drawn) [Example 110, 5-cyclopent-1-en-1-yl-3-[1-(2,6-dichloro-3-fluorophenyl)ethoxy]pyridin-2-amine]: 250 nM.
The same measure, in the same setting: next, `CNCCN(C)C(=O)c1ccc(-c2cnc(N)c(OC(C)c3c(Cl)ccc(F)c3Cl)c2)cc1` (stereo not drawn) [Example 123, 4-{6-amino-5-[1-(2,6-dichloro-3-fluorophenyl)ethoxy]pyridin-3-yl}-N-methyl-N-[2-(methylamino)ethyl]benzamide]: 60 nM; `CCNCCNC(=O)c1ccc(-c2cnc(N)c(OC(C)c3c(Cl)ccc(F)c3Cl)c2)cc1` (stereo not drawn) [Example 18, 4-{6-Amino-5-[1-(2,6-dichloro-3-fluorophenyl)ethoxy]pyridin-3-yl}-N-[2-(ethylamino)ethyl]benzamide]: 36 nM.
For `CC(Oc1cc(-c2ccc(F)c(C(=O)N3C[C@@H](C)N[C@@H](C)C3)c2)cnc1N)c1c(Cl)ccc(F)c1Cl` (stereo partly drawn) [Example 54, (5-{6-Amino-5-[1-(2,6-dichloro-3-fluoro-phenyl)-ethoxy]-pyridin-3-yl}-2-fluoro-phenyl)-(dimethyl-piperazin-1-yl)-methanone], the affinity, expressed as Ki, was 79 nM.
Same read-out and setting: in the case of `CCN(CC)CCC(=O)NCc1cccc(-c2cnc(N)c(OC(C)c3c(Cl)ccc(F)c3Cl)c2)c1` (stereo not drawn) [Example 68, N-(3-{6-Amino-5-[1-(2,6-dichloro-3-fluoro-phenyl)-ethoxy]-pyridin-3-yl}-benzyl)-3-diethylamino-propionamide] it was 68.1 nM.
Still for that read-out and setting: in the case of `CCOc1ccc(Cl)c(C(C)Oc2cc(-c3ccc(C(=O)N4CCNCC4)cc3)cnc2N)c1Cl` (stereo not drawn) [Example 78, (4-{6-Amino-5-[1-(2,6-dichloro-3-ethoxy-phenyl)-ethoxy]-pyridin-3-yl}-phenyl)-piperazin-1-yl-methanone] it was 57 nM.
On the same count and under the same terms, next, `CC(=O)c1ccc(-c2cnc(N)c(OC(C)c3c(Cl)ccc(F)c3Cl)c2)cc1` (stereo not drawn) [Example 147, 1-(4-{6-amino-5-[1-(2,6-dichloro-3-fluorophenyl)ethoxy]pyridin-3-yl}phenyl) ethanone]: 73 nM; `CC(Oc1cc(-c2ccc(C(=O)N3CC4CNCC4C3)cc2)cnc1N)c1c(Cl)ccc(F)c1Cl` (stereo not drawn) [Example 20, 3-[1-(2,6-Dichloro-3-fluorophenyl)ethoxy]-5-[4-(hexahydropyrrolo[3,4-c]pyrrrol-2 (1H)-ylcarbonyl)phenyl]pyridin-2-amine]: 26 nM.
As to `CC(Oc1cc(-c2cccc(CN)c2)cnc1N)c1c(Cl)ccc(F)c1Cl` (stereo not drawn) [Example 132, 5-[3-(aminomethyl)phenyl]-3-[1-(2,6-dichloro-3-fluorophenyl)ethoxy]pyridin-2-amine], the affinity, expressed as Ki, was 69 nM.

The same experiment, now with this note: compound at 1 μM.
Compound `CC(Oc1cc(-c2ccc(C(=O)NCCCN)cc2)cnc1N)c1c(Cl)ccc(F)c1Cl` (stereo not drawn) [Example 11, 4-(6-Amino-5-[1-(2,6-dichloro-3-fluorophenyl)ethoxy]pyridin-3-yl}-N-(3-aminopropyl) benzamide] came in with an inhibition at 1 µM of 86%.
For `CC(Oc1cc(-c2ccc(C(=O)N3CC[N@]4C[C@H]3C4)cc2)cnc1N)c1c(Cl)ccc(F)c1Cl` (stereo partly drawn) [Example 8, 5-[4-(1,4-Diazabicyclo[3.1.1]hept-4-ylcarbonyl)phenyl]-3-[1-(2,6-dichloro-3-fluorophenyl)ethoxy]pyridin-2-amine], the inhibition at 1 µM was 94%.
On the same count and under the same terms, next, `Nc1ncc(Br)cc1OC1CCCCc2ccc(F)cc21` (stereo not drawn) [Example 35, 5-Bromo-3-(3-fluoro-6,7,8,9-tetrahydro-5H-benzocyclohepten-5-yloxy)-pyridin-2-ylamine]: 9%.
The same measure, in the same setting: next, `CCNCCNC(=O)c1ccc(-c2cnc(N)c(OC(C)c3c(Cl)ccc(F)c3Cl)c2)cc1` (stereo not drawn) [Example 18, 4-{6-Amino-5-[1-(2,6-dichloro-3-fluorophenyl)ethoxy]pyridin-3-yl}-N-[2-(ethylamino)ethyl]benzamide]: 90%; `CC(Oc1cc(-c2ccc(C(=O)N3CC4CNCC4C3)cc2)cnc1N)c1c(Cl)ccc(F)c1Cl` (stereo not drawn) [Example 20, 3-[1-(2,6-Dichloro-3-fluorophenyl)ethoxy]-5-[4-(hexahydropyrrolo[3,4-c]pyrrrol-2 (1H)-ylcarbonyl)phenyl]pyridin-2-amine]: 93%.

One may read the Ki as a measure of affinity in units of concentration, obtained from inhibition or displacement. A low value points to tighter binding. By inhibition is commonly meant the relative decrease from the control value, in per cent. A low value points to little suppression.
